{"source": "patent US11672466B2", "about": "“System and method for modeling brain dynamics in normal and diseased states” (THE REGENTS OF THE UNIVERSITY OF CALIFORNIA, priority 2013, dated 2023)", "key": {"[1]": {"system": "MES, PTZ and amygdala-kindling seizure models", "details": "systemic PTZ; cited from earlier work"}, "[2]": {"system": "partial, tonic-clonic and generalized seizures", "details": "clinically; cited from earlier work"}, "[3]": {"system": "APPL/S mice", "assay": "APP immunolabeling for dystrophic neurites, Thioflavin S staining for amyloid plaques in hippocampus", "format": "in vivo", "details": "transgenic mouse model of AD, APPL/S mice given vehicle or LM11A-31", "description": "(§1) FIG. 30A is a photomicrograph of APP immunolabeling for dystrophic neurites (left) and Thioflavin S staining for amyloid plaques (right) in hippocampus of APPL/S mice given vehicle or LM11A-31 as indicated. Scale bars=25 μm. FIG. 30B is a photomicrograph of choline acetyltransferase-immunostained basal forebrain sections. Treatment of APPL/S mice with LM11A-31 was associated with increased length, volume, and branching of cholinergic neurites. […] Statistical significance was determined using ANOVA and post-hoc Student-Neuman-Keuls testing."}, "[4]": {"system": "APPL/S mice", "assay": "choline acetyltransferase immunostaining of cholinergic neurites in basal forebrain", "format": "in vivo, mouse", "details": "basal forebrain sections", "description": "as §1"}, "[5]": {"system": "APP/PS1 mice", "assay": "LTP / synaptic function in hippocampal slice preparations from AD model mice", "set-up": "species or system mouse", "details": "hippocampus"}, "[6]": {"system": "APPL/S mice", "assay": "novel object recognition", "format": "in vivo, mouse"}, "[7]": {"system": "APPL/S mice", "details": "APPL/S transgenic AD mouse model; cited from earlier work"}, "[8]": {"system": "APPL/S mice", "details": "basal forebrain and hippocampus; cited from earlier work"}, "[9]": {"system": "APP/PS1 mice", "details": "slices derived from AD model mice; cited from earlier work"}, "[10]": {"system": "APPL/S mice", "details": "APPL/S transgenic AD mouse model; cited from earlier work", "remark": "listed apart in the source"}, "[11]": {"system": "APPL/S transgenic AD mouse model", "details": "cited from earlier work"}, "[12]": {"system": "amyloid-P-induced neurodegenerative mechanisms", "details": "previous in vitro studies; cited from earlier work"}, "[13]": {"details": "after oral administration; cited from earlier work"}, "[14]": {"system": "PTZ seizures", "details": "prior studies; cited from earlier work"}}, "data": [{"smiles": "CC[C@@H](C(N)=O)N1CCCC1=O", "note": "[LEV, levetiracetam]", "values": [{"measurement": "efficacy in conventional epilepsy models", "setting": "[1]", "result": "efficacy only in amygdala-kindling"}, {"measurement": "clinical efficacy by seizure type", "setting": "[2]", "result": "efficacy for partial, tonic-clonic and non-convulsive generalized seizures"}]}, {"smiles": "CC[C@H](C)[C@H](N)C(=O)NCCN1CCOCC1", "note": "[LM11A-31]", "values": [{"measurement": "dystrophic neurites and amyloid plaque formation in the hippocampus", "setting": "[3]", "result": "rescued significantly"}, {"measurement": "length, volume, and branching of cholinergic neurites", "setting": "[4]", "result": "increased"}, {"measurement": "LTP", "setting": "[5]", "result": "normalizes"}, {"measurement": "object recognition deficits", "setting": "[6]", "result": "prevented"}, {"measurement": "amyloid levels", "setting": "[7]", "result": "without affecting"}, {"measurement": "cholinergic neuritic dystrophy", "setting": "[8]", "result": "prevented"}, {"measurement": "synaptic impairment in hippocampal slice preparations", "setting": "[9]", "result": "reversed"}, {"measurement": "deficits in novel object recognition", "setting": "[10]", "result": "prevented deficits"}, {"measurement": "deficits in Y-maze performance", "setting": "[11]", "result": "prevented deficits"}, {"measurement": "amyloid-P-induced neurodegenerative mechanisms", "setting": "[12]", "result": "prevented"}, {"measurement": "brain concentrations", "setting": "[13]", "result": "reach brain concentrations known to provide neuroprotection in vitro"}, {"measurement": "crossing of the blood brain barrier", "setting": "[13]", "result": "cross the blood brain barrier"}]}, {"smiles": "O=C1NC(=O)C(c2ccccc2)(c2ccccc2)N1", "note": "[PHT, phenytoin]", "values": [{"measurement": "clinical efficacy by seizure type", "setting": "[2]", "result": "efficacy in partial and generalized tonic-clonic seizures"}]}, {"smiles": "O=C1Nc2ccc(Cl)cc2C(c2ccccc2Cl)=NC1O", "note": "(stereo not drawn) [lorazepam]", "values": [{"measurement": "efficacy in conventional epilepsy models", "setting": "[1]", "result": "efficacy in all three conventional models"}, {"measurement": "clinical efficacy by seizure type", "setting": "[2]", "result": "efficacy in partial and generalized tonic-clonic seizures"}]}, {"smiles": "CC[C@@H](CO)NC(=O)[C@@H]1C=C2c3cccc4c3c(cn4C)C[C@H]2N(C)C1", "note": "[methylsergide]", "values": [{"measurement": "effect on the beneficial effect of ANT electrical stimulation to raise threshold for PTZ seizures", "setting": "[14]", "result": "largely blocked"}]}]}
